The source of these data is patent US20120041070A1, “METHODS OF TREATING CANCER HAVING AN ABERRANT EGFR OR KRAS GENOTYPE” (priority 2009, published 2012).

Where two headings read alike, the source gives them in different places.

For experiment [1], the system named is HME-TERT-EGFR (del E746-A750) cells. In words: MTS cell proliferation assay, HME-TERT cells carrying EGFR mutation. It is filed as cell-based, human. The note with it: for EC50: Homo sapiens, HME-TERT-EGFR (del E746-A750), MTS, 0.5% FBS, read-out: Inhibition of cell proliferation: EC50, EGFR. On the procedure: (§1) To investigate the effect of phenformin on proliferation of cells carrying an EGFR mutation, HME cell proliferation assays were performed. An isogenic HME-TERT cell line carrying a mutation in EGFR (del E746-A750) was generated by a “knock in” approach. HME-TERT-EGFR (del E746-A750) cells and control HME parental cells were cultured in DMEM/F12K (glucose 17 mM, glutamine 2.5 mM) with 0.5% FBS, and were treated with a series of dilution of Paclitaxel (100 nM top concentration, 3-fold dilution), Phenformin (3 mM top concentration, 3-fold dilution), or metformin (10 mM top concentration, 3-fold dilution), in duplication or triplication. MTS assays were performed 48, 72, 96 or 120 hours after drug treatment. MTS assay is a colorimetric assay for determining the number of viable cells (see, e.g., Cory A H et al., 1991, Cancer communications 3 (7): 207-12, and Wilson, A P, Cytotoxicity and Viability Assays in Animal Cell Culture: A Practical Approach, 3rd ed. (ed. Masters, J. R. W.) Oxford University Press, 2000, Vol. 1). […] Z′ is defined as Z′=1-3(MAX stdev−background stdev)/(MAX−background). A Z′ value greater than 0.4 is acceptable for cell assays, and a Z′ value greater than 0.6 is acceptable for enzyme assays.

The subject of experiment [2] is HME-TERT parental (wild type) cells. In words: MTS cell proliferation assay, control HME parental (WT) cells. It is filed as cell-based. The note with it: Homo sapiens, 0.5% FBS, read-out: Inhibition of cell proliferation: EC50, WT. The method, then:
as §1
(§2) To investigate the effect of phenformin on proliferation of cells carrying a KRAS mutation, HME cell proliferation assays were performed. An isogenic HME-TERT cell line carrying a mutation in KRAS (G13D) was generated by a “knock in” approach. HME-TERT-KRAS (G13D) cells and control HME parental cells were cultured in DMEM/F12K (glucose 17 mM, glutamine 2.5 mM) with 0.5% FBS, and were treated with a series of dilution of Paclitaxel (100 nM top concentration, 3-fold dilution), Phenformin (3 mM top concentration, 3-fold dilution), or metformin (10 mM top concentration, 3-fold dilution), in duplication or triplication. MTS assays were performed 48, 72, 96 or 120 hours after drug treatment. MTS assay is a colorimetric assay for determining the number of viable cells (see, e.g., Cory A H et al., 1991, Cancer communications 3 (7): 207-12, and Wilson, A P, Cytotoxicity and Viability Assays in Animal Cell Culture: A Practical Approach, 3rd ed. (ed. Masters, J. R. W.) Oxford University Press, 2000, Vol. 1). […] Z′ is defined as Z′=1-3(MAX stdev−background stdev)/(MAX−background). A Z′ value greater than 0.4 is acceptable for cell assays, and a Z′ value greater than 0.6 is acceptable for enzyme assays.

The subject of experiment [3] is HME-TERT-KRAS (G13D) cells. In words: MTS cell proliferation assay, HME-TERT cells carrying KRAS mutation. It is filed as cell-based, human. The note with it: for EC50: Homo sapiens, HME-TERT-KRAS (G13D), MTS, 0.5% FBS, read-out: Inhibition of cell proliferation: EC50, KRAS. The method, then: as §2
(In general: Tetrazolium assays rely on reduction of a dye to a coloured formazan, in cell work by metabolically active cells.)

Experiment [4] has as its system A549 NSCL (KRAS mutant) cells. Description: A549 cell proliferation assay (Cell TiterGlow, total ATP). The note with it: for EC50: Homo sapiens, A549, DMEM 10% FBS, 72 hours, Cell TiterGlow, read-out: EC50, inhibition of A549 cell proliferation. It is filed as cell-based. On the procedure:
To investigate the effect of phenformin on proliferation of a commonly used cancer cell line A549 NSCL (KRAS mutant), a cell proliferation assay was performed. A549 cells were grown in DMEM with 10% FBS, and were treated with designated concentrations (phenformin dose range 0-100 μM; metformin dose range 0-3000 μM) of drugs for 72 hours. Cell viability was determined with Cell TiterGlow to measure total ATP content in live cells.
Background: Cellular ATP, detected with luciferase, serves as a proxy for viable cell number.

Take `N=C(N)NC(=N)NCCc1ccccc1` [phenformin]: the EC50 was found to be 1680 µM in experiment [1] (48 h); 632 µM in experiment [1] (72 h); 486 µM in experiment [1] (96 h); 393 µM in experiment [1] (120 h); 2090 µM in experiment [2] (48 h after drug treatment); 1690 µM in experiment [2] (72 h after drug treatment). Further, the EC50 in experiment [2] (96 h after drug treatment) was 1140 µM; in experiment [2] (120 h after drug treatment), 626 µM; in experiment [3] (48 h) it was 1640 µM; in experiment [3] (72 h), 1250 µM; in experiment [3] (96 h), 727 µM; in experiment [3] (120 h), 440 µM. Moreover, the EC50 in experiment [4] was found to be 5 µM. Also, the “inhibition of proliferation of EGFR mutated HME cells compared with wild type cells” value in experiment [1] (MTS assay, result in words) is “more than that of wild type cells”. The “inhibition of proliferation of KRAS mutated HME cells compared with wild type cells” value in experiment [3] (MTS assay, result in words) is given as “more than that of wild type cells”. Also, in experiment [4] (A549, 72 hours, ratio of EC50 values), the “fold more sensitive than metformin in inhibiting the proliferation of A549 cells” value is reported as “about 112 fold”.
For the compound `CN(C)C(=N)N=C(N)N` [metformin], the EC50 in experiment [1] (48 h), in experiment [1] (72 h), in experiment [1] (96 h), in experiment [1] (120 h), in experiment [2] (48 h after drug treatment) and in experiment [2] (72 h after drug treatment) was greater than 3000 µM throughout. The EC50 in experiment [2] (96 h after drug treatment), in experiment [2] (120 h after drug treatment), in experiment [3] (48 h), in experiment [3] (72 h), in experiment [3] (96 h) and in experiment [3] (120 h) was greater than 3000 µM throughout. Moreover, in experiment [4], the EC50 stood at 650 µM.
